{"source": "patent US20260262643A1", "about": "“HERBICIDAL BENZOXAZINES” (FMC CORPORATION, priority 2022, published 2026)", "key": {"ryegrass, Italian [1]": {"tested_on": "ryegrass, Italian", "experiment": "Test C preemergence", "type": "in vivo, Lolium multiflorum", "method_in_brief": "(§1)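 Pre: seeds in loam/sand, directed soil spray. Post: 1–2 leaf plants, 2–10 cm. Cmpd in non-phytotoxic solvent + surfactant. Greenhouse 10 d; visual rating vs untreated, 0 = none, 100 = complete control.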"}, "ducksalad": {"tested_on": "ducksalad", "experiment": "Test D flooded paddy test", "type": "in vivo, Heteranthera limosa", "conditions": "250 g ai/ha, applied to paddy water, visual rating after 13 to 14 days, scale 0 to 100 (0 no effect, 100 complete control)", "method_in_brief": "(§2)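 At the 2-leaf stage, floodwater 3 cm deep received the test compound; that depth persisted throughout. Plants scored visually 13 to 14 days on, 0 (no effect) to 100 (complete control), dash indicating no result.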"}, "ryegrass, Italian [2]": {"tested_on": "ryegrass, Italian", "experiment": "Test C postemergence", "type": "in vivo, Lolium multiflorum", "conditions": "10 days, 0 to 100 scale (0 no effect, 100 complete control)", "method_in_brief": "as §1"}, "sedge, umbrella": {"tested_on": "sedge, umbrella", "experiment": "Test D flooded paddy test", "type": "in vivo, Cyperus difformis", "conditions": "250 g ai/ha, applied to paddy water, visual rating after 13 to 14 days, scale 0 to 100 (0 no effect, 100 complete control)", "method_in_brief": "as §2"}, "pigweed, palmer [3]": {"tested_on": "pigweed, palmer", "experiment": "Test C postemergence", "type": "in vivo, Amaranthus palmeri", "conditions": "10 days, 0 to 100 scale (0 no effect, 100 complete control)", "method_in_brief": "as §1"}, "rice": {"tested_on": "rice", "experiment": "Test D flooded paddy test", "type": "in vivo, Oryza sativa", "conditions": "250 g ai/ha, applied to paddy water, visual rating after 13 to 14 days, scale 0 to 100 (0 no effect, 100 complete control)", "method_in_brief": "as §2"}, "barnyardgrass [4]": {"tested_on": "barnyardgrass", "experiment": "Test C preemergence", "type": "in vivo, Echinochloa crusgalli", "method_in_brief": "as §1"}, "foxtail, giant [5]": {"tested_on": "foxtail, giant", "experiment": "Test C preemergence", "type": "in vivo, Setaria faberi", "method_in_brief": "as §1"}, "corn [6]": {"tested_on": "corn", "experiment": "Test C postemergence", "type": "in vivo, Zea mays", "conditions": "10 days, 0 to 100 scale (0 no effect, 100 complete control)", "method_in_brief": "as §1"}, "wheat [7]": {"tested_on": "wheat", "experiment": "Test C postemergence", "type": "in vivo, Triticum aestivum", "conditions": "10 days, 0 to 100 scale (0 no effect, 100 complete control)", "method_in_brief": "as §1"}, "blackgrass [8]": {"tested_on": "blackgrass", "experiment": "Test C preemergence", "type": "in vivo, Alopecurus myosuroides", "method_in_brief": "as §1"}, "corn [9]": {"tested_on": "corn", "experiment": "Test C preemergence", "type": "in vivo, Zea mays", "method_in_brief": "as §1"}, "barnyardgrass [10]": {"tested_on": "barnyardgrass", "experiment": "Test C postemergence", "type": "in vivo, Echinochloa crusgalli", "conditions": "10 days, 0 to 100 scale (0 no effect, 100 complete control)", "method_in_brief": "as §1"}, "barnyardgrass [11]": {"tested_on": "barnyardgrass", "experiment": "Test D flooded paddy test", "type": "in vivo, Echinochloa crus-galli", "conditions": "250 g ai/ha, applied to paddy water, visual rating after 13 to 14 days, scale 0 to 100 (0 no effect, 100 complete control)", "method_in_brief": "as §2"}, "soybean [12]": {"tested_on": "soybean", "experiment": "Test C preemergence", "type": "in vivo, Glycine max", "method_in_brief": "as §1"}, "wheat [13]": {"tested_on": "wheat", "experiment": "Test C preemergence", "type": "in vivo, Triticum aestivum", "method_in_brief": "as §1"}, "pigweed, palmer [14]": {"tested_on": "pigweed, palmer", "experiment": "Test C preemergence", "type": "in vivo, Amaranthus palmeri", "method_in_brief": "as §1"}, "blackgrass [15]": {"tested_on": "blackgrass", "experiment": "Test C postemergence", "type": "in vivo, Alopecurus myosuroides", "conditions": "10 days, 0 to 100 scale (0 no effect, 100 complete control)", "method_in_brief": "as §1"}, "kochia [16]": {"tested_on": "kochia", "experiment": "Test C postemergence", "type": "in vivo, Bassia scoparia", "conditions": "10 days, 0 to 100 scale (0 no effect, 100 complete control)", "method_in_brief": "as §1"}, "kochia [17]": {"tested_on": "kochia", "experiment": "Test C preemergence", "type": "in vivo, Bassia scoparia", "method_in_brief": "as §1"}, "horseweed": {"tested_on": "horseweed", "experiment": "Test C postemergence", "type": "in vivo, Erigeron canadensis", "conditions": "10 days, 0 to 100 scale (0 no effect, 100 complete control)", "method_in_brief": "as §1"}, "oat, wild [18]": {"tested_on": "oat, wild", "experiment": "Test C postemergence", "type": "in vivo, Avena fatua", "conditions": "10 days, 0 to 100 scale (0 no effect, 100 complete control)", "method_in_brief": "as §1"}, "ragweed [19]": {"tested_on": "ragweed", "experiment": "Test C postemergence", "type": "in vivo, Ambrosia artemisiifolia", "conditions": "10 days, 0 to 100 scale (0 no effect, 100 complete control)", "method_in_brief": "as §1"}, "oat, wild [20]": {"tested_on": "oat, wild", "experiment": "Test C preemergence", "type": "in vivo, Avena fatua", "method_in_brief": "as §1"}, "soybean [21]": {"tested_on": "soybean", "experiment": "Test C postemergence", "type": "in vivo, Glycine max", "conditions": "10 days, 0 to 100 scale (0 no effect, 100 complete control)", "method_in_brief": "as §1"}, "foxtail, giant [22]": {"tested_on": "foxtail, giant", "experiment": "Test C postemergence", "type": "in vivo, Setaria faberi", "conditions": "10 days, 0 to 100 scale (0 no effect, 100 complete control)", "method_in_brief": "as §1"}, "ragweed [23]": {"tested_on": "ragweed", "experiment": "Test C preemergence", "type": "in vivo, Ambrosia artemisiifolia", "method_in_brief": "as §1"}, "galium": {"tested_on": "galium", "experiment": "Test C postemergence", "type": "in vivo, Galium aparine", "conditions": "10 days, 0 to 100 scale (0 no effect, 100 complete control)", "method_in_brief": "as §1"}, "[24]": {"conditions": "500 g ai/ha, preemergence, 0 to 100 scale (0 no effect, 100 complete control)"}, "[25]": {"conditions": "Preemergence, 125 g ai/ha, 0 to 100 scale, 0 no effect, 100 complete control"}}}
{"compound": "CC(C)c1ncn(-c2cc(C(=O)N3CC(C(F)(F)F)Oc4c(Cl)cccc43)ccn2)n1", "note": "(racemic) [Compound 329]", "values": [{"measurement": "Ryegrass, Italian plant response rating", "setting": "ryegrass, Italian [1]; [24]", "result": 100}, {"measurement": "Plant response rating, Ryegrass, Italian", "setting": "ryegrass, Italian [1]; [25]", "result": 70}, {"measurement": "Plant response rating, Ducksalad (Flood)", "setting": "ducksalad", "result": 0}, {"measurement": "Plant response rating, Ryegrass, Italian", "setting": "ryegrass, Italian [2]; 500 g ai/ha, postemergence", "result": 70}, {"measurement": "Plant response rating, Ryegrass, Italian", "setting": "ryegrass, Italian [2]; Postemergence, 125 g ai/ha", "result": 50}, {"measurement": "Plant response rating, Sedge, Umbrella (Flood)", "setting": "sedge, umbrella", "result": 0}, {"measurement": "Plant response rating, Pigweed, Palmer", "setting": "pigweed, palmer [3]; 500 g ai/ha, postemergence", "result": 80}, {"measurement": "Plant response rating, Pigweed, Palmer", "setting": "pigweed, palmer [3]; Postemergence, 125 g ai/ha", "result": 20}, {"measurement": "Plant response rating, Rice (Flood)", "setting": "rice", "result": 0}, {"measurement": "Barnyardgrass plant response rating", "setting": "barnyardgrass [4]; [24]", "result": 100}, {"measurement": "Plant response rating, Barnyardgrass", "setting": "barnyardgrass [4]; [25]", "result": 70}, {"measurement": "Foxtail, Giant plant response rating", "setting": "foxtail, giant [5]; [24]", "result": 100}, {"measurement": "Plant response rating, Foxtail, Giant", "setting": "foxtail, giant [5]; [25]", "result": 100}, {"measurement": "Plant response rating, Corn", "setting": "corn [6]; 500 g ai/ha, postemergence", "result": 80}, {"measurement": "Plant response rating, Corn", "setting": "corn [6]; Postemergence, 125 g ai/ha", "result": 30}, {"measurement": "Plant response rating, Wheat", "setting": "wheat [7]; 500 g ai/ha, postemergence", "result": 50}, {"measurement": "Plant response rating, Wheat", "setting": "wheat [7]; Postemergence, 125 g ai/ha", "result": 20}, {"measurement": "Blackgrass plant response rating", "setting": "blackgrass [8]; [24]", "result": 80}, {"measurement": "Plant response rating, Blackgrass", "setting": "blackgrass [8]; [25]", "result": 60}, {"measurement": "Corn plant response rating", "setting": "corn [9]; [24]", "result": 40}, {"measurement": "Plant response rating, Corn", "setting": "corn [9]; [25]", "result": 20}, {"measurement": "Plant response rating, Barnyardgrass", "setting": "barnyardgrass [10]; 500 g ai/ha, postemergence", "result": 60}, {"measurement": "Plant response rating, Barnyardgrass", "setting": "barnyardgrass [10]; Postemergence, 125 g ai/ha", "result": 10}, {"measurement": "Plant response rating, Barnyardgrass (Flood)", "setting": "barnyardgrass [11]", "result": 0}, {"measurement": "Soybean plant response rating", "setting": "soybean [12]; [24]", "result": 80}, {"measurement": "Plant response rating, Soybean", "setting": "soybean [12]; [25]", "result": 0}, {"measurement": "Wheat plant response rating", "setting": "wheat [13]; [24]", "result": 30}, {"measurement": "Plant response rating, Wheat", "setting": "wheat [13]; [25]", "result": 10}, {"measurement": "Pigweed, Palmer plant response rating", "setting": "pigweed, palmer [14]; [24]", "result": 100}, {"measurement": "Plant response rating, Pigweed, Palmer", "setting": "pigweed, palmer [14]; [25]", "result": 90}, {"measurement": "Plant response rating, Blackgrass", "setting": "blackgrass [15]; 500 g ai/ha, postemergence", "result": 90}, {"measurement": "Plant response rating, Blackgrass", "setting": "blackgrass [15]; Postemergence, 125 g ai/ha", "result": 50}, {"measurement": "Plant response rating, Kochia", "setting": "kochia [16]; 500 g ai/ha, postemergence", "result": 90}, {"measurement": "Plant response rating, Kochia", "setting": "kochia [16]; Postemergence, 125 g ai/ha", "result": 70}, {"measurement": "Kochia plant response rating", "setting": "kochia [17]; [24]", "result": 100}, {"measurement": "Plant response rating, Kochia", "setting": "kochia [17]; [25]", "result": 40}, {"measurement": "Plant response rating, Horseweed", "setting": "horseweed; 500 g ai/ha, postemergence", "result": 0}, {"measurement": "Plant response rating, Horseweed", "setting": "horseweed; Postemergence, 125 g ai/ha", "result": 0}, {"measurement": "Plant response rating, Oat, Wild", "setting": "oat, wild [18]; 500 g ai/ha, postemergence", "result": 80}, {"measurement": "Plant response rating, Oat, Wild", "setting": "oat, wild [18]; Postemergence, 125 g ai/ha", "result": 30}, {"measurement": "Plant response rating, Ragweed", "setting": "ragweed [19]; 500 g ai/ha, postemergence", "result": 40}, {"measurement": "Plant response rating, Ragweed", "setting": "ragweed [19]; Postemergence, 125 g ai/ha", "result": 40}, {"measurement": "Oat, Wild plant response rating", "setting": "oat, wild [20]; [24]", "result": 80}, {"measurement": "Plant response rating, Oat, Wild", "setting": "oat, wild [20]; [25]", "result": 30}, {"measurement": "Plant response rating, Soybean", "setting": "soybean [21]; 500 g ai/ha, postemergence", "result": 100}, {"measurement": "Plant response rating, Soybean", "setting": "soybean [21]; Postemergence, 125 g ai/ha", "result": 100}, {"measurement": "Plant response rating, Foxtail, Giant", "setting": "foxtail, giant [22]; 500 g ai/ha, postemergence", "result": 90}, {"measurement": "Plant response rating, Foxtail, Giant", "setting": "foxtail, giant [22]; Postemergence, 125 g ai/ha", "result": 50}, {"measurement": "Ragweed plant response rating", "setting": "ragweed [23]; [24]", "result": 60}, {"measurement": "Plant response rating, Ragweed", "setting": "ragweed [23]; [25]", "result": 0}, {"measurement": "Plant response rating, Galium", "setting": "galium; 500 g ai/ha, postemergence", "result": 100}, {"measurement": "Plant response rating, Galium", "setting": "galium; Postemergence, 125 g ai/ha", "result": 60}]}
